{"source": "PubChem BioAssay AID743159", "about": "(Broad Institute, 2013)", "note": "“And” between values parts separate entries of the source, which are not always exact repeats. Equal values may be shown once. The source made the active and inactive calls.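 Rule for the calls: active = fitted curve reaches a 40% rise in lysis activity at or below the top valid tested dose; inconclusive = flat curve holding a 30 to 70% rise, or poor fit; inactive = signal moving opposite to the expected rise, and the rest.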"}
{"system": "not listed separately", "assay": "fungal lysis via adenylate kinase leakage – AK release luminescence, dry powder, dose response (AID 743159)", "settings": "Cryptococcus neoformans lysis, adenylate kinase release luminescence, 4 h; at 15 µM (top of the series)"}
{"smiles": "CCOC(=O)c1c(-c2ccc(F)cc2)csc1NC(=O)CN1CCN(CC)CC1", "lysis activity increase": "20.2% (inactive)"}
{"smiles": "CCOC(=O)c1c(NC(=O)CNCCN(C)C)sc(C)c1-c1ccccc1", "lysis activity increase": "16.9% (inactive)"}
{"smiles": "Cc1ccc(OCCn2c(SCCO)nc3ccccc32)c(C(C)C)c1", "lysis activity increase": "18.7% (inactive)"}
{"smiles": "CCOC(=O)c1c(NC(=O)CN2CCN(C)CC2)sc(C)c1-c1ccc(C)cc1", "lysis activity increase": "-2.55% (inactive)"}
{"smiles": "O=c1[nH]c2ccccc2n1CCOc1ccccc1", "lysis activity increase": "-3.24% (inactive) and 10.6% (inactive)"}
{"smiles": "CCOC(=O)c1c(-c2ccc(OC)cc2)csc1NC(=O)CN(C)CC(=O)N(C)C", "lysis activity increase": "-2.9% (inactive)"}
{"system": "Cryptococcus neoformans lysis, adenylate kinase release luminescence, 4 h", "assay": "fungal lysis via adenylate kinase leakage – AK release luminescence, dry powder, dose response (AID 743159)", "settings": "not given"}
{"smiles": "CCOC(=O)c1c(-c2ccc(C(C)(C)C)cc2)csc1NC(=O)CN1CCN(C)CC1", "AC40": "6330 nM"}
{"smiles": "CCOC(=O)c1c(-c2ccc(F)cc2)csc1NC(=O)CN1CCN(C)CC1", "AC40": "> 15000 nM (inactive)"}
{"smiles": "CCOC(=O)c1c(-c2ccc(C(C)(C)C)cc2)csc1NC(=O)CN1CCN(CC)CC1", "AC40": "6310 nM"}
{"smiles": "Cc1ccc(C(C)C)c(OCCn2c(=S)[nH]c3ccccc32)c1", "AC40": "232 nM"}
{"smiles": "Fc1ccccc1OCCn1c(=S)[nH]c2ccccc21", "AC40": "1770 nM"}
{"smiles": "COC(=O)C1=C(C)N(Cc2ccc(F)cc2)C(=S)NC1c1cccc(F)c1", "note": "(stereo not given)", "AC40": "2300 nM"}
{"smiles": "Fc1cccc2c1[nH]c(=S)n2CCOc1ccccc1", "AC40": "1500 nM"}
{"smiles": "c1ccc(OCCn2cnc3ccccc32)cc1", "AC40": "> 15000 nM (inactive)"}
{"smiles": "COC(=O)C1=C(C)N(Cc2ccccc2)C(=S)NC1c1ccc(Br)cc1", "note": "(stereo not given)", "AC40": "1810 nM"}
{"smiles": "CCOc1ccc(OCCn2c(=S)[nH]c3ccccc32)cc1", "AC40": "880 nM"}
{"smiles": "Cc1ccc(OCCn2cnc3ccccc32)cc1", "AC40": "2860 nM"}
{"smiles": "Cc1ccc(OCCn2c(=S)[nH]c3ccccc32)c(C(C)C)c1", "AC40": "334 nM and 155 nM"}
{"smiles": "CCOC(=O)c1c(-c2ccc(-c3ccccc3)cc2)csc1NC(=O)CNCCN(C)C", "AC40": "6640 nM"}
{"smiles": "COC(=O)C1=C(C)N(Cc2ccc(Cl)cc2)C(=S)NC1c1ccc(Br)cc1", "note": "(stereo not given)", "AC40": "454 nM"}
{"smiles": "Cc1ccccc1OCCn1c(=S)[nH]c2ccccc21", "AC40": "596 nM"}
{"smiles": "S=c1[nH]c2ccccc2n1CCOc1ccccc1", "AC40": "1630 nM"}
{"smiles": "COC(=O)C1=C(C)N(Cc2ccc(Br)cc2)C(=S)NC1c1ccc(F)cc1", "note": "(stereo not given)", "AC40": "681 nM"}
{"smiles": "Cc1ccc2c(c1)[nH]c(=S)n2CCOc1ccccc1", "AC40": "211 nM"}
{"smiles": "COC(=O)C1=C(C)N(Cc2ccc(Br)cc2)C(=S)NC1c1ccc(OC)cc1", "note": "(stereo not given)", "AC40": "925 nM"}
{"smiles": "Cc1ccc(OCCn2c(C)nc3ccccc32)cc1", "AC40": "1480 nM"}
{"smiles": "Cc1cccc(OCCn2c(=S)[nH]c3cc(C(F)(F)F)ccc32)c1", "AC40": "352 nM"}
{"smiles": "S=c1[nH]c2ccccc2n1CCOc1ccc(Cl)cc1", "AC40": "270 nM"}
{"smiles": "Cc1ccc(OCCn2c(=S)[nH]c3ccccc32)cc1", "AC40": "703 nM"}
{"smiles": "S=c1[nH]c2cccc(Cl)c2n1CCOc1ccccc1", "AC40": "851 nM"}
